Tested on: Energy system protein genes
Test: DNA chip mRNA expression in yeast, energy system protein genes (Table 4)
Format: cell-based, Saccharomyces cerevisiae S288C
Procedure, shortened: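 S. cerevisiae S288C grown at 25° C in YPD were exposed in log phase for two hours to one toxic chemical at a growth-inhibiting, non-lethal concentration; untreated cells served as control. Poly(A) mRNA was reverse-transcribed with Cy3/Cy5-dUTP and hybridized to a whole-genome yeast DNA chip at 65° C for over 12 hours; values are fluorescence ratios versus untreated.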

Measured: The level of expressed mRNA in the presence of chemical substance/The level of expressed mRNA in the absence of chemical substance

Oc1cc(Cl)c(Cl)cc1Cl [(6), 2,4,5-trichlorophenol]
0.6: yeast gene YML120C, cells incubated two hours with the chemical substance | yeast gene YMR261C, cells incubated two hours with the chemical substance | yeast gene YPR048W, cells incubated two hours with the chemical substance
2.0: yeast gene YMR118C | yeast gene YNL202W, cells incubated two hours with the chemical substance
1.6: yeast gene YGL191W, cells incubated two hours with the chemical substance | yeast gene YGL205W, cells incubated two hours with the chemical substance | yeast gene YIL160C | yeast gene YJR009C | yeast gene YKL152C | yeast gene YLR345W | yeast gene YOR142W, cells incubated two hours with the chemical substance | yeast gene YPL262W, cells incubated two hours with the chemical substance
3.7: yeast gene YHR179W
2.5: yeast gene YCR012W | yeast gene YER178W | yeast gene YLR134W, cells incubated two hours with the chemical substance
2.2: yeast gene YDR001C | yeast gene YDR231C
3.2: yeast gene YFR053C
16.3: yeast gene YGR043C
4.2: yeast gene YAL060W
1.1: yeast gene YBR001C, cells incubated two hours with the chemical substance | yeast gene YDL078C, cells incubated two hours with the chemical substance | yeast gene YEL024W, cells incubated two hours with the chemical substance | yeast gene YGL187C, cells incubated two hours with the chemical substance | yeast gene YGR087C, cells incubated two hours with the chemical substance | yeast gene YJL121C, cells incubated two hours with the chemical substance | yeast gene YLR295C, cells incubated two hours with the chemical substance, 25° C., YPD medium | yeast gene YPL276W, cells incubated two hours with the chemical substance
2.7: yeast gene YOR178C, cells incubated two hours with the chemical substance
3.0: yeast gene YFR015C
0.4: yeast gene YGL018C, cells incubated two hours with the chemical substance | yeast gene YLR395C, cells incubated two hours with the chemical substance | yeast gene YMR323W, cells incubated two hours with the chemical substance
1.2: yeast gene YBR185C, cells incubated two hours with the chemical substance | yeast gene YDL181W, cells incubated two hours with the chemical substance | yeast gene YDR298C, cells incubated two hours with the chemical substance | yeast gene YFL057C | yeast gene YKL035W | yeast gene YKL141W, cells incubated two hours with the chemical substance | yeast gene YLL041C, cells incubated two hours with the chemical substance | yeast gene YLR038C, cells incubated two hours with the chemical substance | yeast gene YMR089C | yeast gene YMR205C, cells incubated two hours with the chemical substance | yeast gene YPL240C
2.6: yeast gene YGR244C | yeast gene YIL111W
1.9: yeast gene YGR254W | yeast gene YLR304C, cells incubated two hours with the chemical substance
3.5: yeast gene YCL040W
0.8: yeast gene YCR046C, cells incubated two hours with the chemical substance | yeast gene YDR529C, cells incubated two hours with the chemical substance | yeast gene YHL008C | yeast gene YKL016C, cells incubated two hours with the chemical substance
0.7: yeast gene YGL256W, cells incubated two hours with the chemical substance | yeast gene YJL166W, cells incubated two hours with the chemical substance | yeast gene YLR377C, cells incubated two hours with the chemical substance
0.9: yeast gene YBL058W, cells incubated two hours with the chemical substance | yeast gene YBL099W, cells incubated two hours with the chemical substance | yeast gene YDL067C, cells incubated two hours with the chemical substance | yeast gene YGR062C, cells incubated two hours with the chemical substance, 25° C., YPD medium | yeast gene YLR284C, cells incubated two hours with the chemical substance | yeast gene YML087C | yeast gene YMR073C, cells incubated two hours with the chemical substance | yeast gene YNL241C
6.5: yeast gene YDL021W
2.1: yeast gene YDR178W, cells incubated two hours with the chemical substance
4.6: yeast gene YNL237W
2.8: yeast gene YGR207C | yeast gene YML100W | yeast gene YMR105C
1.8: yeast gene YKR009C, cells incubated two hours with the chemical substance | yeast gene YLR258W, cells incubated two hours with the chemical substance | yeast gene YML054C | yeast gene YNL331C | yeast gene YPL031C, cells incubated two hours with the chemical substance
6.2: yeast gene YGR256W
2.9: yeast gene YBR126C | yeast gene YGR008C
0.5: yeast gene YJR048W | yeast gene YKL148C, cells incubated two hours with the chemical substance
1.5: yeast gene YEL039C, cells incubated two hours with the chemical substance | yeast gene YHR174W | yeast gene YJR121W, cells incubated two hours with the chemical substance | yeast gene YLR044C, cells incubated two hours with the chemical substance | yeast gene YLR354C, cells incubated two hours with the chemical substance | yeast gene YPR184W, cells incubated two hours with the chemical substance
7.1: yeast gene YPL088W
1.7: yeast gene YBR221C, cells incubated two hours with the chemical substance | yeast gene YDL174C | yeast gene YDR050C, cells incubated two hours with the chemical substance | yeast gene YDR079W, cells incubated two hours with the chemical substance | yeast gene YGR192C | yeast gene YIL045W | yeast gene YIR031C, cells incubated two hours with the chemical substance | yeast gene YKR097W | yeast gene YML129C, cells incubated two hours with the chemical substance | yeast gene YOL086C, cells incubated two hours with the chemical substance | yeast gene YOL165C | yeast gene YPL061W, cells incubated two hours with the chemical substance
1.0: yeast gene YCR105W, cells incubated two hours with the chemical substance | yeast gene YGL062W | yeast gene YPL275W, cells incubated two hours with the chemical substance
2.4: yeast gene YJL052W
1.4: yeast gene YGR174C, cells incubated two hours with the chemical substance | yeast gene YJR155W | yeast gene YKR058W, cells incubated two hours with the chemical substance, 25° C., YPD medium | yeast gene YMR267W, cells incubated two hours with the chemical substance, 25° C., YPD medium | yeast gene YOR388C, cells incubated two hours with the chemical substance
1.3: yeast gene YDL107W, cells incubated two hours with the chemical substance | yeast gene YDR377W, cells incubated two hours with the chemical substance | yeast gene YKL060C, cells incubated two hours with the chemical substance | yeast gene YML125C | yeast gene YNL071W | yeast gene YPL171C
